From US11414424B2, “Cardiac sarcomere inhibitors” (Cytokinetics, Inc., priority 2018, dated 2022)

System: bovine cardiac myofibrils
Test: Myofibril assay: PK/LDH-coupled steady-state ATPase activity of skinned bovine cardiac myofibrils
Format: biochemical
Conditions: Ca2+ activating to 75% of maximal rate
Procedure, shortened: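 Steady-state ATPase of detergent-skinned bovine left-ventricular myofibrils (1 mg/mL), PK/LDH-coupled NADH read at 340 nm, in PIPES/MgCl2 buffer pH 6.8 with 50 μM ATP, 0.6 mM EGTA and CaCl2 set for 50% or 75% activation. Inhibition of activity measured.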

Row | Structure (SMILES) | CDMF75 IC15 [µM]
1 | N#Cc1ccc(N2CC(=O)N(Cc3ccc(C(F)(F)F)cc3)C3(CN(CC(F)F)C3)C2=O)cc1 [Compound 191, 4-(2-(2,2-difluoroethyl)-6,9-dioxo-5-(4-(trifluoromethyl)benzyl)-2,5,8-triazaspiro[3.5]nonan-8-yl)benzonitrile] | 14.3
2 | CNC(=O)N1CC2(C1)C(=O)N(c1cccc(Cl)c1)CC(=O)N2Cc1ccc(C(F)(F)F)cc1 [Compound 163, 8-(3-chlorophenyl)-N-methyl-6,9-dioxo-5-(4-(trifluoromethyl)benzyl)-2,5,8-triazaspiro[3.5]-nonane-2-carboxamide] | 7.3
3 | Cc1ccc(N2CC3(C2)C(=O)N(C(C)C)CC(=O)N3Cc2ccc(Cl)cc2)cn1 [Compound 14, 5-(4-chlorobenzyl)-8-isopropyl-2-(6-methyl-pyridin-3-yl)-2,5,8-triazaspiro[3.5]nonane-6,9-dione] | 6.0
4 | N#Cc1ccc(N2CC(=O)N(Cc3ccc(Cl)cc3)C3(CCN(C(=O)C4CCC4)C3)C2=O)c(F)c1 (stereo in doubt) [Compound 212, (S)-4-(6-(4-chlorobenzyl)-2-(cyclobutanecarbonyl)-7,10-dioxo-2,6,9-triazaspiro[4.5]decan-9-yl)-3-fluorobenzonitrile] | 0.9
5 | CC(C)C(=O)N1CC2(C1)C(=O)N(c1ccc(C#N)cc1F)CC(=O)N2Cc1ccc(C(F)(F)F)cc1 [Compound 174, 3-fluoro-4-(2-isobutyryl-6,9-dioxo-5-(4-(trifluoromethyl)benzyl)-2,5,8-triazaspiro[3.5]nonan-8-yl)benzonitrile] | 8.0
6 | CC1(N2CC(=O)N(Cc3ccc(Cl)cc3)C3(CCN(c4ccccn4)C3)C2=O)CC1 (centres unmarked) [Compound 85, 6-(4-chlorobenzyl)-9-(1-methylcyclopropyl)-2-(pyridin-2-yl)-2,6,9-triazaspiro[4.5]decane-7,10-dione] | 14.3
7 | CC(=O)N1CC[C@]2(C1)C(=O)N(c1ccc(C#N)cc1F)CC(=O)N2Cc1ccc(C(F)(F)F)cc1 [Compound 209, (S)-4-(2-acetyl-7,10-dioxo-6-(4-(trifluoromethyl)-benzyl)-2,6,9-triazaspiro-[4.5]decan-9-yl)-3-fluorobenzonitrile] | 0.5
8 | N#Cc1ccc(N2CC(=O)N(Cc3ccc(Cl)cc3)C3(CCN(C(=O)C4COC4)C3)C2=O)c(F)c1 (stereo in doubt) [Compound 210, (S)-4-(6-(4-chlorobenzyl)-2-(oxetane-3-carbonyl)-7,10-dioxo-2,6,9-triazaspiro[4.5]decan-9-yl)-3-fluorobenzonitrile] | 1.7
9 | CNC(=O)N1CC2(C1)C(=O)N(c1ccc(OC(F)(F)F)cc1)CC(=O)N2Cc1ccc(C(F)(F)F)cc1 [Compound 160, N-methyl-6,9-dioxo-8-(4-(trifluoromethoxy)-phenyl)-5-(4-(trifluoromethyl)benzyl)-2,5,8-triazaspiro[3.5]-nonane-2-carboxamide] | 7.1
10 | CC(C)N1CC(=O)N(Cc2ccc(C(F)(F)F)cc2)C2(CCN(c3cc(C(N)=O)ccn3)C2)C1=O (centres unmarked) [Compound 89, 2-(9-isopropyl-7,10-dioxo-6-(4-(trifluoromethyl)-benzyl)-2,6,9-triazaspiro[4.5]decan-2-yl)isonicotinamide] | 3.3
11 | CC(C)N1CC(=O)N(Cc2ccc(Cl)cc2)C2(CCN(c3ccc(C(N)=O)cn3)C2)C1=O (centres unmarked) [Compound 98, 6-(6-(4-chlorobenzyl)-9-isopropyl-7,10-dioxo-2,6,9-triazaspiro[4.5]decan-2-yl)nicotinamide] | 2.4

Next, values leading:

Row | CDMF75 IC15 [µM] | Structure (SMILES)
12 | 4.5 | N#Cc1ccc(N2CC(=O)N(Cc3ccc(F)cc3)C(C3COC3)C2=O)c(F)c1 (centres unmarked) [Compound 706, 3-fluoro-4-(4-(4-fluoro-benzyl)-3-(oxetan-3-yl)-2,5-dioxopiperazin-1-yl)benzonitrile]
13 | 3.8 | N#Cc1ccc(N2CC(=O)N(Cc3ccc(C(F)(F)F)cc3)C(C3COC3)C2=O)c(F)c1 (centres unmarked) [Compound 282, 3-fluoro-4-(3-(oxetan-3-yl)-2,5-dioxo-4-(4-(trifluoromethyl)benzyl)-piperazin-1-yl)benzonitrile]
14 | 0.7 | N#Cc1ccc(N2CC(=O)N(Cc3ccc(C(F)(F)F)cc3)C3(CCN(C=O)C3)C2=O)c(F)c1 (stereo in doubt) [Compound 222, (S)-3-fluoro-4-(2-formyl-7,10-dioxo-6-(4-(trifluoromethyl)benzyl)-2,6,9-triazaspiro[4.5]decan-9-yl)benzonitrile]
15 | >39 | Cc1cnc(N2CC(=O)N(Cc3ccc(C(F)(F)F)cc3)C(C3COC3)C2=O)c(F)c1 (single isomer, unassigned) [Compound 691B, 1-(3-fluoro-5-methylpyridin-2-yl)-3-(oxetan-3-yl)-4-(4-(trifluoromethyl)benzyl)piperazine-2,5-dione]
16 | 6.4 | CCC1CCC(N2CC(=O)N(Cc3ccc(C(F)(F)F)cc3)C3(CN(C(C)=O)C3)C2=O)CC1 (centres unmarked) [Compound 323, 2-acetyl-8-(4-ethylcyclo-hexyl)-5-(4-(trifluoro-methyl)benzyl)-2,5,8-triazaspiro[3.5]nonane-6,9-dione]
17 | 29.6 | COc1ccc(N2CC(=O)N(Cc3ccc(Cl)cc3)[C@]3(CCN(C(C)=O)C3)C2=O)nc1 [Compound 225, (S)-2-acetyl-6-(4-chloro-benzyl)-9-(5-methoxy-pyridin-2-yl)-2,6,9-triazaspiro[4.5]decane-7,10-dione]
18 | 0.2 | COC(=O)c1ccc(N2CC3(C2)C(=O)N(c2ccc(C#N)cc2F)CC(=O)N3Cc2ccc(C(F)(F)F)cc2)cc1 [Compound 534, methyl 4-(8-(4-cyano-2-fluorophenyl)-6,9-dioxo-5-(4-(trifluoromethyl)benzyl)-2,5,8-triazaspiro[3.5]nonan-2-yl)benzoate]
19 | 16.4 | Cc1cccc(CN2C(=O)CN(C(C)C)C(=O)C2c2ccc(Cl)cc2)c1 (centres unmarked) [Compound 304, 3-(4-chlorophenyl)-1-isopropyl-4-(3-methyl-benzyl)piperazine-2,5-dione]
20 | 24.0 | CC(C)N1CC(=O)N(Cc2ccc(C(F)(F)F)cc2)C2(CCc3ccccc32)C1=O (centres unmarked) [Compound 319, 4′-isopropyl-1′-(4-(trifluoromethyl)benzyl)-2,3-dihydrospiro[indene-1,2′-piperazine]-3′,6′-dione]
21 | 10.7 | CC(C)N1CC(=O)N(Cc2ccc(Cl)cc2)C2(CCN(c3cnn(C)c3)C2=O)C1=O (centres unmarked) [Compound 330, 6-(4-chlorobenzyl)-9-isopropyl-2-(1-methyl-1H-pyrazol-4-yl)-2,6,9-triazaspiro[4.5]decane-1,7,10-trione]
22 | 25.1 | C[C@@H](c1ccc(Cl)cc1)N1C(=O)CN(c2ncc(Cl)cc2F)C(=O)C12CN(C(=O)NC1CC1)C2 [Compound 559, (S)-8-(5-chloro-3-fluoro-pyridin-2-yl)-5-(1-(4-chlorophenyl)ethyl)-N-cyclopropyl-6,9-dioxo-2,5,8-triazaspiro[3.5]-nonane-2-carboxamide]

Same assay, conditions: Ca2+ activating to 75% of maximal rate, listed as 867B

Row | CDMF75 IC15 [µM] | Structure (SMILES)
23 | 1.7 | O=C1CN(c2ccc(Cl)cc2F)C(=O)C2(CC(O)C2)N1Cc1ccc(F)cc1 (single isomer, unassigned) [Diastereomer 867B, 8-(4-chloro-2-fluorophenyl)-5-(4-fluorobenzyl)-2-hydroxy-5,8-diazaspiro[3.5]nonane-6,9-dione]
